Tests used:
[1] = Extraction of ethanol from an aqueous solution by ionic liquid (HPLC); format: physicochemical; settings: 3 mL aqueous solution about 31 g/L ethanol, 5 vol % ionic liquid, overnight equilibration, control 655
Procedure: (§1) Ethanol and isobutanol concentration in the solution was measured using HPLC as described above following thorough mixing and overnight equilibration of the contents of the vial.

[2] = system: Saccharomyces cerevisiae (W1362 20A); assay: Glucose Uptake Index (GUI) of Saccharomyces cerevisiae culture in the presence of ionic liquid; format: cell-based; settings: 5% (v/v) ionic liquid, YPD medium, 30° C., 16 hours after addition; GUI of control without ionic liquid 79.0 (Ex. 1-5) or 100 (Ex. 6-8)
[3] = Extraction of isobutanol from an aqueous solution by ionic liquid (HPLC); format: physicochemical; settings: 3 mL aqueous solution about 31 g/L isobutanol, 5 vol % ionic liquid, overnight equilibration, control 436
Procedure: as §1

| SMILES | mM Ethanol (in solution after equilibration) ([1]; listed as [MeDMEEAP] [HFPS]) [mM] | GUI of Sample (Glucose Utilization Index in the presence of ionic liquid phase) [2] | mM isobutanol (in solution after equilibration) ([3]; listed as [MeDMEEAP] [HFPS]) [mM] | mM Ethanol (in solution after equilibration) [1] [mM] | mM isobutanol (in solution after equilibration) [3] [mM] | mM Ethanol (in solution after equilibration) ([1]; listed as [MeDMEEAP] [Tf2N]) [mM] | mM isobutanol (in solution after equilibration) ([3]; listed as [MeDMEEAP] [Tf2N]) [mM] |
| --- | --- | --- | --- | --- | --- | --- | --- |
| CCOCC[N+](C)(C)CCN1C(=O)CCC1C (stereo not shown) [Example 2, 1-(N,N,N-dimethyl(ethylethoxy)aminoethyl)-5-methyl-pyrrolidine-2-one hexafluoropropanesulfonate] | 656 | 34.0 | 422 | – | – | – | – |
| COCC[N+](C)(C)CCN1C(=O)CCC1C (stereo not shown) [Example 4, 1-(N,N,N-dimethyl(methylethoxy)aminoethyl)-5-methylpyrrolidin-2-one hexafluoropropanesulfonate] | – | 21.9 | – | 645 | 423 | – | – |
| CCC[N+](C)(C)CCN1C(=O)CCC1C.O=S(=O)([N-]S(=O)(=O)C(F)(F)F)C(F)(F)F (stereo not shown) [Example 6, 1-(N,N,N-dimethylpropylaminoethyl)-5-methyl pyrrolidone-2-one bis(trifluoromethane)sulfonamide] | – | 100 | – | – | 387 | – | – |
| CC1CCC(=O)N1CC[N+](C)(C)CCO.O=S(=O)([N-]S(=O)(=O)C(F)(F)F)C(F)(F)F (stereo not shown) [Example 8, 1-(N,N,N-dimethyl(hydroxyethyl)aminoethyl)-5-methyl pyrrolidone-2-one bis(trifluoromethane)sulfonamide] | – | 89.3 | – | – | 417 | – | – |
| COCC[N+](C)(C)CCN1C(=O)CCC1C.O=S(=O)([N-]S(=O)(=O)C(F)(F)F)C(F)(F)F (stereo not shown) [Example 7, 1-(N,N,N-dimethyl(methylethoxy)aminoethyl)-5-methyl pyrrolidone-2-one bis(trifluoromethane)sulfonamide] | – | 100 | – | 643 | 389 | – | – |
| CCOCC[N+](C)(C)CCN1C(=O)CCC1C (stereo not shown) [Example 3, 1-(N,N,N-dimethyl(ethylethoxy)aminoethyl)-5-methyl-pyrrolidine-2-one bis(trifluoromethane)sulfonamide] | – | 80.4 | – | – | – | 637 | 398 |

Reference: patent US20100140166A1, “PROCESS FOR FERMENTIVE PREPARATION OF ALCOHOLS AND RECOVERY OF PRODUCT” (E.I. DU PONT DE NEMOURS AND COMPANY, priority 2008, published 2010)
